The values that follow come from patent publication EP0729362B1, “TRANSDERMAL COMPOSITION OF N- N- 5- 4-(AMINOIMINOMETHYL)PHENYL]-1-OXOPENTYL]-L-alpha-ASPARTYL]-L-PHENYLALANINE OR ITS ESTERS AND THEIR PHARMACEUTICALLY ACCEPTABLE SALTS” (G.D. SEARLE & CO., priority 1993, dated 1995).

This data set can be described thus: transdermal shaved rat model: delivery of tritiated compound from a gel patch, counted in urine and feces. The class given is in vivo, Rats. The settings on record: 2.5 cm^2 patch.

From the text: Rats were anesthetized with N2O/O2 and [sequence] fluorocarbon anesthesia using a metering device (Quantifier VMC Anesthesia Machine, Matrix Media Inc.) The rat's back was carefully shaved using an electric razor the day before the transdermal experiment, and no abrasions in the skin surface were apparent.
Compound was applied to the skin using a Hilltop Chamber® transdermal delivery plastic device, in which the compound was contained in a 3% hydroxypropyl cellulose gel. The device was glued in place using cyanomethacrylate (Superbinder 495, Newark Electronics).
The aqueous formulation was 2% in N-[N-[5-[4-(aminoiminomethyl)phenyl]-1-oxopentyl]-L-α-aspartyl]-L-phenylalanine, monohydrochloride (10 mg N-[N-[5-[4-(aminoiminomethyl)phenyl]-1-oxopentyl]-L-α-aspartyl]-L-phenylalanine, monohydrochloride 0.5 ml gel/2.5 cm^2 patch). […] The amount of compound in a sample was calculated from the number of counts detected and the specific radioactivity of the compound in the patch.
Urine and feces were collected daily after patch application as indicated in the Table I. Counts were combined to achieve the total amount delivered. Urine was counted directly by scintillography (Hionic Fluid, Packard Co., Mark III), while feces, were processed by mechanical mixing in saline followed by oxidization of a dried aliquot to tritiated water in an oxidizer (Oxidizer Machine, Packard).

For `CCOC(=O)C[C@H](NC(=O)CCCCc1ccc(C(=N)N)cc1)C(=O)N[C@@H](Cc1ccccc1)C(=O)OCC` [N-[N-[5-[4-(aminoiminomethyl)phenyl]-1-oxopentyl]-L-α-aspartyl]-L-phenylalanine diethyl ester], the average amount delivered (urine and feces counts combined for the total amount delivered) amounted to 4.6 ± 1.9 mg.

As to “N-[N-[5-[4-(aminoiminomethyl)phenyl]-1-oxopentyl]-L-α-aspartyl]-L-phenylalanine, monohydrochloride”, the “average amount delivered into the urine” value (amount calculated from [3H] counts) is given as 48 mg.
